Patent publication US9194872B2, “Potentiation of nanopharyngeal cancer radiotherapy by inhibitors of leukemia inhibitory factor” (Chang Gung University, priority 2013, dated 2015)

How the values were obtained:
[1] = test system: TW06 cell transfected with firefly luciferase 2 reporter gene; assay: Tumor growth of mouse with intratumoral injection and radiation in 7 Gy; assay type: in vivo, NOD/SCID mouse; conditions: twice per week, 4 weeks, LIF 150-200 ng, sLIFR 1-2 μg, radiation 7 Gy following first injection, FIGS. 5A, 5B
Description: A TW06 cell transfected with firefly luciferase 2 reporter gene was subcutaneously injected into the thigh of a 7-week-old NOD/SCID mouse. Until the tumor on the thigh was grown to a volume of 60-100 mm^3, PBS, leukemia inhibitory factor (150-200 ng, twice per week, 4 weeks), or a soluble leukemia inhibitory factor receptor (1-2 μg, twice per week, 4 weeks) was intratumorally injected into the mouse, and then radiation in a dose of 7 Gy were emitted to the mouse following the first injection. Finally, the mouse's tumor was observed, and its activity and volume were detected by an in vivo imaging system at a certain time point after the emission.

[2] = test system: nasopharyngeal cancer cell; assay: Caspase3/7 positive cells after substance treatment and radiation in 4 Gy; assay type: cell-based; conditions: radiation 4 Gy; 96th hour after emission; LIF versus sLIFR treatment; FIG. 4D
CNE1 cells = assay: Resistance of nasopharyngeal cancer cell to radiation in various doses (xCelligence); assay type: cell-based; conditions: LIF 10 ng/ml; for IC50 value of the radiation for the treated cells: FIG. 4B
Description: Firstly, 6×10^3 CNE1 cells were seeded. After cultivated at 37° C. overnight, the seeded cells were treated with PBS and leukemia inhibitory factor (10 ng/ml), and then radiation in various doses were emitted to the treated cells. Finally, an xCelligence real time cell analyzer was used to detect the cell growth at a certain time point after this emission.

[3] = test system: TW06 cell transfected with firefly luciferase 2 reporter gene; assay: Tumor growth of mouse with intratumoral injection (in vivo imaging system); design: species or system NOD/SCID mouse; conditions: twice per week, 4 weeks, LIF 150-200 ng, sLIFR 1-2 μg, compared with PBS, FIGS. 3B, 3C
Description: In addition, a TW06 cell transfected with firefly luciferase 2 reporter gene was subcutaneously injected into the thigh of a 7-week-old NOD/SCID (non-obese diabetic/severe-combined immunodeficient) mouse. Until the tumor on the mouse's thigh was grown to a volume of 50 mm^3, PBS, leukemia inhibitory factor (150-200 ng, twice per week, 4 weeks), or a soluble leukemia inhibitory factor receptor (1-2 μg, twice per week, 4 weeks) was intratumorally injected into the mouse. Finally, the mouse's tumor was observed, and its activity and volume were detected by an in vivo imaging system at a certain time point after the injection.

[4] = test system: ATM, p53, γH2AX, NBS1 or CDC25C; assay: Western blotting of apoptosis-related and DNA damage-related proteins after radiation in 4 Gy; assay type: cell-based; conditions: TW06 and CNE1 cells; radiation 4 Gy; 10th minute following emission; sLIFR versus LIF; FIGS. 4E, 4F
TW06 cells = assay: Growth of nasopharyngeal cancer cell in vitro (xCelligence real time cell analyzer); assay type: cell-based; conditions: sLIFR 1 μg/ml, LIF 10 ng/ml, compared among PBS, sLIFR plus LIF, FIG. 3A
Description: 6×10^3 TW06 cells were seeded, and then cultivated at 37° C. overnight. These cells were treated with PBS, a soluble leukemia inhibitory factor receptor (1 μg/ml), leukemia inhibitory factor (10 ng/ml), or a soluble leukemia inhibitory factor receptor plus leukemia inhibitory factor. After which, an xCelligence real time cell analyzer (Roche Applied Science) was used to detect the cell growth at a certain time point after this treatment.

CNE1 cells or TW06 cells = assay: Cell survival after substance treatment and radiation in 4 Gy (xCelligence); assay type: cell-based; conditions: radiation 4 Gy, sLIFR 1 μg/ml, LIF 10 ng/ml, FIG. 4C
Description: In another aspect, 6×10^3 CNE1 cells or TW06 cells were seeded, and then cultivated at 37° C. overnight. The cultivated cells were treated with PBS, a soluble leukemia inhibitory factor receptor (1 μg/ml), leukemia inhibitory factor (10 ng/ml), or leukemia inhibitory factor plus a soluble leukemia inhibitory factor receptor. After which, radiation in 4 Gy were emitted to the treated cells. Finally, an xCelligence real time cell analyzer was used to detect the cell survival at a certain time point after this emission.

Row | IC50 value of the radiation for the treated cells (CNE1 cells; 48th hour after radiation emission (PBS 1.5 Gy)) [Gy] | IC50 value of the radiation for the treated cells (CNE1 cells; 55th hour after radiation emission (PBS 1.3 Gy)) [Gy] | Molecule | tumor volume of the mouse with radiation emission [1] | Caspase3/7 expression level [2] | growth of cells with radiation emission (CNE1 cells; radiation in various doses, versus PBS, FIG. 4A) | tumor volume of the mouse [3] | activation/phosphorylation of apoptosis-related and DNA damage-related proteins [4] | growth of cells (TW06 cells) | growth of cells with radiation emission (CNE1 cells or TW06 cells)
1 | 3.7 | 5.8 | leukemia inhibitory factor: a cytokine belonging to the interleukin-6 family and mediating cell growth through inhibition of cell differentiation | the biggest | low Caspase3/7 expression level | more obvious than that with PBS treatment and radiation emission | the biggest | – | – | –
2 | – | – | soluble leukemia inhibitory factor receptor: non-transmembrane protein (soluble receptor) that can bind leukemia inhibitory factor (protein, UniProt P42702 45-833, looked up, extracellular domain) extracellular domain: QKKGAPHDLKCVTNNLQVWNCSWKAPSGTGRGTDYEVCIENRSRSCYQLEKTSIKIPALSHGDYEITINSLHDFGSSTSKFTLNEQNVSLIPDTPEILNLSADFSTSTLYLKWNDRGSVFPHRSNVIWEIKVLRKESMELVKLVTHNTTLNGKDTLHHWSWASDMPLECAIHFVEIRCYIDNLHFSGLEEWSDWSPVKNISWIPDSQTKVFPQDKVILVGSDITFCCVSQEKVLSALIGHTNCPLIHLDGENVAIKIRNISVSASSGTNVVFTTEDNIFGTVIFAGYPPDTPQQLNCETHDLKEIICSWNPGRVTALVGPRATSYTLVESFSGKYVRLKRAEAPTNESYQLLFQMLPNQEIYNFTLNAHNPLGRSQSTILVNITEKVYPHTPTSFKVKDINSTAVKLSWHLPGNFAKINFLCEIEIKKSNSVQEQRNVTIKGVENSSYLVALDKLNPYTLYTFRIRCSTETFWKWSKWSNKKQHLTTEASPSKGPDTWREWSSDGKNLIIYWKPLPINEANGKILSYNVSCSSDEETQSLSEIPDPQHKAEIRLDKNDYIISVVAKNSVGSSPPSKIASMEIPNDDLKIEQVVGMGKGILLTWHYDPNMTCDYVIKWCNSSRSEPCLMDWRKVPSNSTETVIESDEFRPGIRYNFFLYGCRNQGYQLLRSMIGYIEELAPIVAPNFTVEDTSADSILVKWEDIPVEELRGFLRGYLFYFGKGERDTSKMRVLESGRSDIKVKNITDISQKTLRIADLQGKTSYHLVLRAYTDGGVGPEKSMYVVTKENS | the smallest | – | – | the smallest | activated/phosphorylated more strongly | the most unobvious | the most unobvious
